# Measurements from patent publication EP3827825A1, “USE OF 3, 4-DIARYLPYRAZOLES AS ANTIBACTERIAL AGENTS” (Wageningen Universiteit, priority 2019, dated 2021).
# Where two headings read alike, the source gives them in different places.
# What was measured:
# P. multocida = assay: Minimal inhibitory concentration (MIC), double-dilution in broth, OD600; type: cell-based, Pasteurella multocida; conditions: unit assumed
# Outline: (§1)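 MICs came from two-fold broth dilutions from 5 mg/mL DMSO stocks, with 100-fold-diluted overnight cultures incubated overnight/24 h; growth was read at OD600 and the MIC taken as the lowest concentration without growth. For M. marinum, Middlebrook 7H9 broth was used with 3 days at 30 °C.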
# E. coli JW5503 = type: cell-based, Escherichia coli; conditions: unit assumed
# Outline: as §1
# S. aureus Newman = assay: Minimal inhibitory concentration (MIC), double-dilution in broth, OD600; type: cell-based, Staphylococcus aureus Newman; conditions: unit assumed
# Outline: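 Twofold broth dilution series of compound from a DMSO stock, against S. aureus Newman from a 1:100-diluted overnight culture. Plates were incubated for 24 hours, then read at OD600. The MIC is the lowest concentration showing no growth.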
# M. marinum = assay: Minimal inhibitory concentration (MIC), Middlebrook 7H9 broth, 3 days at 30 °C; type: cell-based, Mycobacterium marinum; conditions: unit assumed
# Outline: as §1
# S. suis = assay: Minimal inhibitory concentration (MIC), double-dilution in broth, OD600; type: cell-based, Streptococcus suis; conditions: unit assumed
# Outline: as §1
# E. faecium Van A = assay: as above; type: cell-based, Enterococcus faecium; conditions: unit assumed
# Outline: as §1
# HEK293 = assay: Cell toxicity, Alamar blue assay, 24 hours exposure; type: cell-based; conditions: Homo sapiens
# Outline: (§2)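 Alamar blue (resazurin→resorufin) viability in NRK-52E and HEK293 cells after 24 h exposure to HKI compounds at 0.39–500 µg/mL in serum-free medium. Compounds were removed, dye added for 45 min, fluorescence read. Mostly single measurements.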
# NRK-52E = assay: as above; type: cell-based; conditions: Rattus norvegicus, read-out: IC50 NRK-52E (50 mg/mL stock)
# Outline: as §2
# [1] = HEK293, read-out: IC50 HEK293 (5 mg/mL stock)
# [2] = HEK293, read-out: IC50 HEK293 (50 mg/mL stock)
Structure (SMILES),MIC P. multocida (P. multocida) [µg/mL],MIC E. coli JW5503 (E. coli JW5503) [µg/mL],MIC S. aureus Newman (S. aureus Newman) [µg/mL],MIC M. marinum (M. marinum) [µg/mL],MIC S. suis (S. suis) [µg/mL],MIC E. faecium Van A (E. faecium Van A) [µg/mL],IC50 (HEK293; [1]) [µg/mL],IC50 (HEK293; [2]) [µg/mL],IC50 (NRK-52E) [µg/mL]
"COc1ccc(-c2[nH]nc(C(F)(F)F)c2-c2ccc(Br)cc2)c(O)c1 [May-23, 2-[4-(4-bromophenyl)-5-(trifluoromethyl)-1∼{H}-pyrazol-3-yl]-5-methoxy-phenol]",50,3.13,3.13,> 50,6.25,3.13,8.38,9,~2.81
"CCOc1ccc(-c2n[nH]c(C(F)(F)F)c2-c2ccccc2OC)c(O)c1 [May-20, 5-ethoxy-2-[4-(2-methoxyphenyl)-5-(trifluoromethyl)-1∼{H}-pyrazol-3-yl]phenol]",50,3.13,6.25,25,6.25,12.5,2.1,,~17.6
"COc1ccc(-c2[nH]nc(C)c2-c2ccc(Br)cc2)c(O)c1 [May-4, 2-[4-(4-bromophenyl)-5-methyl-1∼{H}-pyrazol-3-yl]-5-methoxy-phenol]",12.5,3.13,6.25,25,6.25,12.5,8.96,,~83.7
"CCOc1ccc(-c2[nH]nc(C(F)(F)F)c2-c2ccc(Cl)cc2)c(O)c1 [May-27, 2-[4-(4-chlorophenyl)-5-(trifluoromethyl)-1∼{H}-pyrazol-3-yl]-5-ethoxy-phenol]",25,3.13,3.13,50,3.13,3.13,10.8,118,181
"NNC(=O)COc1ccc(-c2n[nH]c(C(F)(F)F)c2-c2ccc(Br)cc2)c(O)c1 [May-12, 2-[4-[4-(4-bromophenyl)-5-(trifluoromethyl)-1∼{H}-pyrazol-3-yl]-3-hydroxy-phenoxy]acetohydrazide]",50,6.25,12.5,> 50,6.25,12.5,7.04,,27.2
"Oc1ccc(-c2n[nH]c(C(F)(F)F)c2-c2ccc(Cl)cc2)c(O)c1 [May-14, 4-[4-(4-chlorophenyl)-5-(trifluoromethyl)-1∼{H}-pyrazol-3-yl]resorcinol]",25,3.13,3.13,> 50,12.5,12.5,,10.6,3.04
"C=C(C)COc1ccc(-c2[nH]nc(C(F)(F)F)c2-c2ccc(Cl)cc2)c(O)c1 [Sep-29, 2-[4-(4-chlorophenyl)-5-(trifluoromethyl)-1∼{H}-pyrazol-3-yl]-5-(2-methylallyloxy)phenol]",> 50,12.5,3.13,> 50,12.5,6.25,16.4,,19.9
"Cc1noc(-c2ccc(O)cc2O)c1-c1ccc(Br)cc1 [AND-3, 4-[4-(4-bromophenyl)-3-methyl-isoxazol-5-yl]resorcinol]",50,6.25,25,> 50,50,0.78,12.2,62.9,~354
"CCOc1cc(O)c(-c2n[nH]c(C(F)(F)F)c2-c2ccccc2)cc1CC [Sep-2, 5-ethoxy-4-ethyl-2-[4-phenyl-5-(trifluoromethyl)-1∼{H}-pyrazol-3-yl]phenol]",> 50,25,6.25,> 50,25,25,3.97,,~17.4
"Oc1cc(OCc2ccccc2)ccc1-c1[nH]nc(C(F)(F)F)c1-c1ccccc1 [May-24, 5-benzoxy-2-[4-phenyl-5-(trifluoromethyl)-1∼{H}-pyrazol-3-yl]phenol]",> 50,25,1.56,25,3.13,1.56,,4.8,~3.86
"Oc1cc(OCc2ccccc2)ccc1-c1n[nH]c(C(F)(F)F)c1-c1ccc(Br)cc1 [May-15, 5-benzoxy-2-[4-(4-bromophenyl)-5-(trifluoromethyl)-1∼{H}-pyrazol-3-yl]phenol]",> 50,> 50,1.56,12.5,3.13,3.13,,6.9,5.13
